Data set [1] addresses T1, HIV-1 RNase H (p66/p51 HIV-1 RT) (Human immunodeficiency virus type 1 group M subtype B, UniProt P04585).
T1 construct: RT is a p66/p51 heterodimer comprised of asymmetrically-organized subunits processed from the 165 kDa gag/pol polyprotein precursor; (His)6; made in house; host or cells: Escherichia coli
The experiment in a line: High throughput RNase H assay on sequence-independent RNA/DNA hybrid. The data set is classed as biochemical. The conditions noted are these: HIV-1 RNase H enzymatic activity, sequence-independent RNA/DNA hybrid; read-out: In vitro IC50. The method, then:
IC50 values were determined as previously reported (Budihas, S. R., et al., Nucleic Acids Res., 33(4):1249-56 (2005)), using an 18-nucleotide 3′-flourescein-labeled RNA annealed to a complementary 18-nucleotide 5′-dabsyl-labeled DNA. […] The reaction was initiated by adding 1 μl of 100 mM MgCl2 to 9 μl of mixture containing 4 ng enzyme, 200 nM substrate, 20 μM α-hydroxytropolones in 50 mM Tris, pH 8.0, 80 mM KCl, 2 mM DTT, and 10% DMSO at 37° C., and quenched with 10 μl of a gel-loading buffer after 10 minutes. Hydrolysis products were fractionated by denaturing polyacrylamide gel electrophoresis and visualized by fluorescent imaging (Typhoon Trio+, GE Healthcare, Piscataway, N.J.). […]

A further data set deals with T2, HIV-1 RT RNase H (Human immunodeficiency virus type 1 group M subtype B, UniProt P04585).
T2 construct: RT is a p66/p51 heterodimer comprised of asymmetrically-organized subunits processed from the 165 kDa gag/pol polyprotein precursor; (His)6; made in house; host or cells: Escherichia coli
The experiment in a line: Cleavage of the HIV-1 polypurine tract (PPT) primer, PPT/U3 junction. The data set is classed as biochemical. The following applies: 20 μM inhibitor. The method, then:
FIG. 2A depicts a schematic model of RNA/DNA substrate, indicating the RNase H cleavage site at the PPT/U3 junction (< >). The PPT is indicated by the shaded box. FIG. 2B depicts the quantification of PPT cleavage data. All inhibitors were evaluated at 20 μM.
IC50 values were determined as previously reported (Budihas, S. R., et al., Nucleic Acids Res., 33(4):1249-56 (2005)), using an 18-nucleotide 3′-flourescein-labeled RNA annealed to a complementary 18-nucleotide 5′-dabsyl-labeled DNA. […] The reaction was initiated by adding 1 μl of 100 mM MgCl2 to 9 μl of mixture containing 4 ng enzyme, 200 nM substrate, 20 μM α-hydroxytropolones in 50 mM Tris, pH 8.0, 80 mM KCl, 2 mM DTT, and 10% DMSO at 37° C., and quenched with 10 μl of a gel-loading buffer after 10 minutes. Hydrolysis products were fractionated by denaturing polyacrylamide gel electrophoresis and visualized by fluorescent imaging (Typhoon Trio+, GE Healthcare, Piscataway, N.J.).
Since the high-throughput RNase H assay examines non-specific, “polymerase-independent” RNase H activity defined by the spatial separation of the DNA polymerase and RNase H active site of HIV-1 RT (Gopalakrishnan, V., et al., Proc. Natl. Acad. Sci. USA, 89(22):10763-7 (1992)), an examination of whether α-hydroxytropolones altered cleavage specificity on a more biologically-relevant substrate, namely the polypurine tract (PPT) primer, which must be processed from the RNA/DNA replication intermediate to initiate (+) strand DNA synthesis.

The target in a further data set is T3, p66^EQ/p51 HIV-1 RT (Human immunodeficiency virus type 1 group M subtype B, UniProt P04585, E1065Q).
T3 construct: RT is a p66/p51 heterodimer comprised of asymmetrically-organized subunits processed from the 165 kDa gag/pol polyprotein precursor; (His)6; made in house; host or cells: Escherichia coli
Nature of the data set: DNA-dependent DNA polymerase assay, RNase H-deficient mutant p66EQ/p51. The following applies: 20 μM. The data set is classed as biochemical. The method, then:
(§1) DNA-dependent DNA synthesis was measured on a fluorescently-labeled duplex DNA prepared by annealing a 33-nt template, 5′-CACTGCTCAAGAAGTTCCAATCCTAAATACATA-3′ (SEQ ID NO: 3), to the 5′-Cy5-labeled primer 5′-ATGTATGGGTATGTATTTAGG-3′ (SEQ ID NO: 4). Polymerization was initiated by adding 1 μl of 2 mM dNTPs to 9 μl of mixture containing 4 ng enzyme, 200 nM substrate, 20 μM α-hydroxytropolones in 10 mM Tris, pH 7.8, 80 mM KCl, 1 mM DTT, 10 mM MgCl2, and 10% DMSO at 37° C. DNA synthesis was quenched with 10 μl of a gel-loading buffer after 10 minutes, and reaction products were analyzed by denaturing polyacrylamide gel electrophoresis and fluorescent imaging.
(§2) In order to examine the specificity of our manicol analogs, their effect on the DNA polymerase activity of wild type p66/p51 HIV-1 RT and RNase H-deficient derivatives was determined. In particular, RNase H-deficient strains p66^EQ/p51 and p66^DA/p51, were tested, which harbor mutations in one of the catalytically-critical amino acids contacted by manicol (E478 and D549, respectively), that would be predicted to interfere with α-hydroxytropolone binding.
(§3) Although crystallographic evidence is presently unavailable, compounds 5 and 10, thus appear capable of occupying a second site on HIV-1 RT.

Another data set has as its target T4, p66^DA/p51 HIV-1 RT (Human immunodeficiency virus type 1 group M subtype B, UniProt P04585, D1136A).
T4 construct: RT is a p66/p51 heterodimer comprised of asymmetrically-organized subunits processed from the 165 kDa gag/pol polyprotein precursor; (His)6; made in house; host or cells: Escherichia coli
Nature of the data set: DNA-dependent DNA polymerase assay, RNase H-deficient mutant p66DA/p51. The data set is classed as biochemical. The following applies: 20 μM. How it is done: as §1, §2, §3

Data set [2] relates to HIV-1 virus strain RF in CEM-SS cells. Nature of the data set: HIV-1 cytopathicity assay. The data set is classed as cell-based. The conditions noted are these: for EC50: read-out: Virus Replication EC50. How it is done: This assay was conducted as previously reported (Weislow, O, S., et al., J. Natl. Cancer Inst., 81(8):577-86 (1989)). Samples were dissolved in DMSO at 10 mM and diluted to a final high concentration of 50 μM in the 96-well assay plate, with 2-fold dilutions made to a low concentration of about 0.78 μM. All samples were tested in duplicate. The HIV-1 virus strain RF was used to infect CEM-SS cells. Compound cytotoxicity was measured in the same assay plate using uninfected cells. Regression analysis was used to estimate the effective concentration (EC50) as well as the cytotoxic concentration (CC50).
(In general: Cytopathic effects are the visible damage that an infection or toxin causes in cultured cells.)

The nature of data set [3]: Compound cytotoxicity in uninfected cells (same assay plate). The data set is classed as cell-based. The conditions noted are these: human, uninfected CEM-SS cells; read-out: Virus Replication CC50. The method, then:
(§4) All samples were tested in duplicate. The HIV-1 virus strain RF was used to infect CEM-SS cells. Compound cytotoxicity was measured in the same assay plate using uninfected cells. Regression analysis was used to estimate the effective concentration (EC50) as well as the cytotoxic concentration (CC50).

In the next data set the test system is uninfected CEM-SS cells. The data set is described as above. The data set is classed as cell-based. How it is done:
as §4

Data set [4] concerns the target T1, HIV-1 RNase H (p66/p51 HIV-1 RT). The following applies: background, previously demonstrated; cited from earlier work.
Data set [5] has as its system HIV-1 virus strain RF in CEM-SS cells. The conditions noted are these: background, previous finding; cited from earlier work.

Read-outs that look alike come from different tables or passages of the source.

Results on three compounds are retold here after patent US8993768B2, “Tropolone compounds for treating or preventing retroviral infection” (The United States of America, as represented by the …, priority 2011, dated 2015).

In general, IC50 refers to the concentration needed to halve the response being measured. Broadly, the EC50 is the concentration that produces a half-maximal response. In general, CC50 refers to the concentration at which the toxic effect on the cells reaches its halfway point.

As for `Cc1cc(O)c(=O)c(O)c2c1CC(C(C)(O)CNc1ccccc1)CC2` (mixture of isomers) [Compound 5, 5,7-Dihydroxy-2-(1-hydroxy-1-methyl-2-phenylamino-ethyl)-9-methyl-1,2,3,4-tetrahydrobenzocyclohepten-6-one], in data set [1], the IC50 came to 1.2 µM. Also, the “inhibition of PPT/U3 cleavage (in words)” value at HIV-1 RT RNase H is reported as “more active in blocking PPT/U3 cleavage”. Moreover, the “effect on DNA-dependent DNA polymerase activity” value on p66^EQ/p51 HIV-1 RT was “significantly and consistently inhibited”; on p66^DA/p51 HIV-1 RT, “significantly and consistently inhibited”. Also, the “protection against the cytopathic effect of the virus (in words)” value (from here on “protection against the cytopathic effect”) in data set [2] (HIV-1 RF) is listed as “showed protection”. The EC50 in [2] (Human immunodeficiency virus 1, CEM-SS, HIV-1 RF) was determined as 7.4 µM. Besides, the CC50 in data set [3] was found to be 31.7 µM.
Regarding `Cc1cc(O)c(=O)c(O)c2c1CC(C(C)(O)C[S+]([O-])Cc1ccccc1)CC2` (stereo not shown) [Compound 10, 2-(2-Benzylsulfinyl-1-hydroxy-1-methyl-ethyl)-5,7-dihydroxy-9-methyl-1,2,3,4-tetrahydrobenzocyclohepten-6-one], in data set [1], the IC50 was found to be 1.5 µM. Moreover, the “inhibition of PPT/U3 cleavage (in words)” value at HIV-1 RT RNase H is recorded as “less active”. Also, the “effect on DNA-dependent DNA polymerase activity” value on p66^EQ/p51 HIV-1 RT is “significantly and consistently inhibited”. Moreover, on p66^DA/p51 HIV-1 RT, the “effect on DNA-dependent DNA polymerase activity” value was “significantly and consistently inhibited”. In data set [2] (HIV-1 RF), the “protection against the cytopathic effect” value is “showed protection” and the EC50 was found to be 14.5 µM. In the data set with uninfected CEM-SS cells, this compound yielded a CC50 of more than 50 µM.
Regarding `C=C(C)[C@H]1CCc2c(c(C)cc(O)c(=O)c2O)C1` [Manicol, 5,7-dihydroxy-2-isopropenyl-9-methyl-1,2,3,4-tetrahydro-benzocyclohepten-6-one, reference compound], the “protection against the cytopathic effect” value in [2] (HIV-1 RF) is “no protection”. In addition, in data set [2] (Human immunodeficiency virus 1, HIV-1 RF), the EC50 came out at 13.6 µM. For the same compound, the CC50 in data set [3] is 13.6 µM. The “inhibition of RNase H activity of HIV RT in vitro” value in [4] is “potently and specifically inhibit”. Besides, the “reduction of virus replication in culture” value in [5] is reported as “ineffective”.
